Data published in ChEMBL document CHEMBL4706663, “Large-scale isolation and antitumor mechanism evaluation of compounds from the traditional Chinese medicine Cordyceps Militaris” (Eur J Med Chem, 2021).
Calls of active or inactive are those of the source. The calls are words filed in the database; no cut-off is given here.

Tests used:
A549 = experiment: Antiproliferative activity against human A549 cells assessed as inhibition of cell growth at 12.5 ug/ml measured after 48 hrs by real-time cell analysis relative to control; type: functional; settings: read-out: GI
HepG2 = experiment: Antiproliferative activity against human HepG2 cells assessed as inhibition of cell growth at 12.5 ug/ml measured after 48 hrs by real-time cell analysis relative to control; type: functional; settings: read-out: GI
[1] = Antitumor activity against […] cancer cells xenografted in BALB/c mouse assessed as tumor weight at 240 mg/kg, ig administered every day for 10 days (reference value: 1.68 +/- 0.78 g); type: functional, Lewis lung carcinoma; settings: time 10 day
[2] = Antitumor activity against […] cancer cells xenografted in BALB/c mouse assessed as tumor weight at 80 mg/kg, ig administered every day for 10 days (reference value: 1.68 +/- 0.78 g); type: functional, Lewis lung carcinoma; settings: time 10 day
[3] = Antitumor activity against […] cancer cells xenografted in BALB/c mouse assessed as tumor weight at 27 mg/kg, ig administered every day for 10 days (reference value: 1.68 +/- 0.78 g); type: functional, Lewis lung carcinoma; settings: time 10 day
[4] = Antitumor activity against […] cancer cells xenografted in BALB/c mouse assessed as tumor growth inhibition at 240 mg/kg, ig administered every day for 10 days relative to control; type: functional; settings: Lewis lung carcinoma, po, 240 h, time 10 day, read-out: TGI
[5] = Antitumor activity against […] cancer cells xenografted in BALB/c mouse assessed as tumor growth inhibition at 80 mg/kg, ig administered every day for 10 days relative to control; type: functional; settings: Lewis lung carcinoma, po, 240 h, time 10 day, read-out: TGI
[6] = Antitumor activity against […] cancer cells xenografted in BALB/c mouse assessed as tumor growth inhibition at 27 mg/kg, ig administered every day for 10 days relative to control; type: functional; settings: Lewis lung carcinoma, po, 240 h, time 10 day, read-out: TGI
[7] = Antitumor activity against […] cancer cells xenografted in BALB/c mouse assessed as lung weight at 80 mg/kg, ig administered every day for 10 days measured post last dose (reference value: 0.13 +/- 0.03 g); type: functional, Lewis lung carcinoma; settings: time 10 day
[8] = Antitumor activity against […] cancer cells xenografted in BALB/c mouse assessed as lung weight at 27 mg/kg, ig administered every day for 10 days measured post last dose (reference value: 0.13 +/- 0.03 g); type: functional, Lewis lung carcinoma; settings: time 10 day
[9] = Toxicity in […] lung cancer cells xenografted BALB/c mouse assessed as net weight at 240 mg/kg, ig administered every day for 10 days (reference value: 1.16 +/- 1.55 g); type: organism-based; settings: in vivo, po, 240 h, time 10 day
[10] = Toxicity in […] lung cancer cells xenografted BALB/c mouse assessed as net weight at 27 mg/kg, ig administered every day for 10 days (reference value: 1.16 +/- 1.55 g); type: organism-based; settings: in vivo, po, 240 h, time 10 day
[11] = Toxicity in […] lung cancer cells xenografted BALB/c mouse assessed as survival rate at 240 mg/kg, ig administered every day for 10 days (reference value: 100%); type: organism-based; settings: in vivo, po, time 10 day
[12] = Toxicity in […] lung cancer cells xenografted BALB/c mouse assessed as survival rate at 80 mg/kg, ig administered every day for 10 days (reference value: 100%); type: organism-based; settings: in vivo, po, time 10 day
[13] = Antitumor activity against […] cells xenografted in KM mouse assessed as tumor weight at 240 mg/kg, ig administered every day for 10 days (reference value: 0.55 +/- 0.57 g); type: functional; settings: time 10 day
[14] = Antitumor activity against […] cells xenografted in KM mouse assessed as tumor weight at 80 mg/kg, ig administered every day for 10 days (reference value: 0.55 +/- 0.57 g); type: functional; settings: time 10 day
[15] = Antitumor activity against […] cells xenografted in KM mouse assessed as tumor weight at 27 mg/kg, ig administered every day for 10 days (reference value: 0.55 +/- 0.57 g); type: functional; settings: time 10 day
[16] = Antitumor activity against […] cells xenografted in KM mouse assessed as tumor growth inhibition at 240 mg/kg, ig administered every day for 10 days relative to control; type: functional; settings: H22, po, 240 h, time 10 day, read-out: TGI
[17] = Antitumor activity against […] cells xenografted in KM mouse assessed as tumor growth inhibition at 80 mg/kg, ig administered every day for 10 days relative to control; type: functional; settings: H22, po, 240 h, time 10 day, read-out: TGI
[18] = Antitumor activity against […] cells xenografted in KM mouse assessed as liver weight at 80 mg/kg, ig administered every day for 10 days measured post last dose (reference value: 1.57 +/- 0.3 g); type: functional; settings: time 10 day
[19] = Antitumor activity against […] cells xenografted in KM mouse assessed as liver weight at 27 mg/kg, ig administered every day for 10 days measured post last dose (reference value: 1.57 +/- 0.3 g); type: functional; settings: time 10 day
[20] = Toxicity in […] cells xenografted KM mouse assessed as net weight at 240 mg/kg, ig administered every day for 10 days (reference value: 9.45 +/- 4 g); type: organism-based; settings: in vivo, po, 240 h, time 10 day
[21] = Toxicity in […] cells xenografted KM mouse assessed as net weight at 80 mg/kg, ig administered every day for 10 days (reference value: 9.45 +/- 4 g); type: organism-based; settings: in vivo, po, 240 h, time 10 day
[22] = Toxicity in […] cells xenografted KM mouse assessed as net weight at 27 mg/kg, ig administered every day for 10 days (reference value: 9.45 +/- 4 g); type: organism-based; settings: in vivo, po, 240 h, time 10 day
[23] = Toxicity in […] cells xenografted KM mouse assessed as survival rate at 240 mg/kg, ig administered every day for 10 days relative to control; type: organism-based; settings: in vivo, po, time 10 day
[24] = Toxicity in […] cells xenografted KM mouse assessed as survival rate at 80 mg/kg, ig administered every day for 10 days relative to control; type: organism-based; settings: in vivo, po, time 10 day
[25] = molecular target: Heat shock cognate 71 kDa protein (Homo sapiens) (UniProt P11142); experiment: Binding affinity to heat shock cognate 71 kDa protein isoform 1 in human A549 cells by LC-MS/MS analysis; type: cell-based
Sequence of Heat shock cognate 71 kDa protein (Homo sapiens) (P11142 2-646 limits assumed): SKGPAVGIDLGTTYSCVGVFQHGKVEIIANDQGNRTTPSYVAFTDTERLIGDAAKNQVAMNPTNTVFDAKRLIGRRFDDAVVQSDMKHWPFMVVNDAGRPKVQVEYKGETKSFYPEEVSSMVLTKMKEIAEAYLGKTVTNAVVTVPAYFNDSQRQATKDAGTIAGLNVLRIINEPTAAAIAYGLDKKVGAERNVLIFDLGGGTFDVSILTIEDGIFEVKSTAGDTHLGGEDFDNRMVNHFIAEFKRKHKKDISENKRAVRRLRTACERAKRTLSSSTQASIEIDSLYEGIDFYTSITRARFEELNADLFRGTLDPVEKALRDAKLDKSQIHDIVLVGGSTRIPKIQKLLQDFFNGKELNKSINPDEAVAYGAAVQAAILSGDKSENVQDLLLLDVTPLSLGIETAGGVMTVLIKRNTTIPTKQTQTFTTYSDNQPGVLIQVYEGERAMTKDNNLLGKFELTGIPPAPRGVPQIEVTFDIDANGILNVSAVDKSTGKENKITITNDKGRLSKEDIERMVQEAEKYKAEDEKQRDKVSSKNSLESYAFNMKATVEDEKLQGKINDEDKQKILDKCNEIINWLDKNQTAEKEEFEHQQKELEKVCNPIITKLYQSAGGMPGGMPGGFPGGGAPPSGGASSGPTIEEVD

[26] = molecular target: Tropomyosin alpha-4 chain (Homo sapiens) (UniProt P67936); experiment: Binding affinity to tropomyosin alpha-4 chain isoform 1 in human A549 cells by LC-MS/MS analysis; type: cell-based
Sequence of Tropomyosin alpha-4 chain (Homo sapiens) (P67936 whole entry, canonical isoform): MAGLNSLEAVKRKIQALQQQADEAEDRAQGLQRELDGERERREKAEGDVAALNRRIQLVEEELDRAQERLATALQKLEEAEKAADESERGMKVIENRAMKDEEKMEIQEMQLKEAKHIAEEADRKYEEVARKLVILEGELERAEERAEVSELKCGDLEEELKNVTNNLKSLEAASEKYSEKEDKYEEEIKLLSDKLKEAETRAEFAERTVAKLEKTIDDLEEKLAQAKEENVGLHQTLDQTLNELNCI

[27] = molecular target: Endoplasmic reticulum chaperone BiP (Homo sapiens) (UniProt P11021); experiment: Binding affinity to 78 kDa glucose-regulated protein in human A549 cells by LC-MS/MS analysis; type: cell-based
Sequence of Endoplasmic reticulum chaperone BiP (Homo sapiens) (P11021 whole entry): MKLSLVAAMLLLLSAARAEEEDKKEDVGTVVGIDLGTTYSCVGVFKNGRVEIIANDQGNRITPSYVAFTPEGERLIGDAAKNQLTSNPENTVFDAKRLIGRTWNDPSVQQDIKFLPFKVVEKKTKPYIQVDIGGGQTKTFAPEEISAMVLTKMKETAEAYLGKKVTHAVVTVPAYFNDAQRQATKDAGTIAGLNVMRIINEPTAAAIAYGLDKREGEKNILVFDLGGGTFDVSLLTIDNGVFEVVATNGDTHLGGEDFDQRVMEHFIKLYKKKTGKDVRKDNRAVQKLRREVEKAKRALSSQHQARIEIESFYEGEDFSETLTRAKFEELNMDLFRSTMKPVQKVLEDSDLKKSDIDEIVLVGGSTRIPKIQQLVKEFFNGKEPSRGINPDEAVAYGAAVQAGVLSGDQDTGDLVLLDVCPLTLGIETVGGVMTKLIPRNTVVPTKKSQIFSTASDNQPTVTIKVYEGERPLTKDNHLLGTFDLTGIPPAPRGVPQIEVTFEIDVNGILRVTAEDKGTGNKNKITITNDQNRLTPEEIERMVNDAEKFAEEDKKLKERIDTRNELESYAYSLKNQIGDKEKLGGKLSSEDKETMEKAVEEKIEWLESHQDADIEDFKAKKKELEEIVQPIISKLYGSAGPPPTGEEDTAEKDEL

[28] = molecular target: Heat shock 70 kDa protein 1A/1B (Homo sapiens) (UniProt P0DMV8+P0DMV9); experiment: Binding affinity to heat shock 70 kDa protein 1A/1B in human A549 cells by LC-MS/MS analysis; type: cell-based
Sequence of Heat shock 70 kDa protein 1A/1B (Homo sapiens) (P0DMV8 whole entry, looked up): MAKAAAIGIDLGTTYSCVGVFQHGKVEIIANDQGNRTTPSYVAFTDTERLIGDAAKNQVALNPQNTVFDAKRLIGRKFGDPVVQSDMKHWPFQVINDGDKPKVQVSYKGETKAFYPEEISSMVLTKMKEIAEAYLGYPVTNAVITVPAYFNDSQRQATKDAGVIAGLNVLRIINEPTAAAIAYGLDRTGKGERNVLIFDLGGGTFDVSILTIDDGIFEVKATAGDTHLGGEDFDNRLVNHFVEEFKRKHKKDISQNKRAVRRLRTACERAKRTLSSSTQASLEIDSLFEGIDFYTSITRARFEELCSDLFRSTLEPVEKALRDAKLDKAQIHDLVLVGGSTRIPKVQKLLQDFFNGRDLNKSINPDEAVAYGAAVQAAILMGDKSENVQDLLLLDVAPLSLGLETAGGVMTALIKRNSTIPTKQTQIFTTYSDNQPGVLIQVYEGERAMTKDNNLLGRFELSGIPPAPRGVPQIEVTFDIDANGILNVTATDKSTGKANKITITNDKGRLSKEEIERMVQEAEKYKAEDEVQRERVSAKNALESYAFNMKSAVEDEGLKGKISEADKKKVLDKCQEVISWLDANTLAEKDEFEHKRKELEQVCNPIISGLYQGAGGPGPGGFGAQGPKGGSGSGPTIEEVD
Sequence of Heat shock 70 kDa protein 1A/1B (Homo sapiens) (P0DMV9 whole entry, looked up): as the sequence (P0DMV8 whole entry, looked up) above

[29] = molecular target: Glyceraldehyde-3-phosphate dehydrogenase (Homo sapiens) (UniProt P04406); experiment: Binding affinity to GAPDH in human A549 cells by LC-MS/MS analysis; type: cell-based
Sequence of Glyceraldehyde-3-phosphate dehydrogenase (Homo sapiens) (P04406 2-335 limits assumed): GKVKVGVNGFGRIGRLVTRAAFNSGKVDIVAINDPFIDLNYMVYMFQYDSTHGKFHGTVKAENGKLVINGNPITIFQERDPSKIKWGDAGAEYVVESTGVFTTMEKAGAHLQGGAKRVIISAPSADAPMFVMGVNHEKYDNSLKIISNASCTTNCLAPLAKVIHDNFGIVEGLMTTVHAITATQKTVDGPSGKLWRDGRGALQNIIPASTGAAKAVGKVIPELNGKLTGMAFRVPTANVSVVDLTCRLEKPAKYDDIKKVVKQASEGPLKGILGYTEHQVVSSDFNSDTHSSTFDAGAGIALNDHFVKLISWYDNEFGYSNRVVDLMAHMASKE

[30] = molecular target: Dihydropyrimidinase-related protein 2 (Homo sapiens) (UniProt Q16555); experiment: Binding affinity to dihydropyrimidinase-related protein 2 isoform 1 in human A549 cells by LC-MS/MS analysis; type: cell-based
[31] = molecular target: Tropomyosin alpha-1 chain (Homo sapiens) (UniProt P09493); experiment: Binding affinity to tropomyosin alpha-1 chain isoform 1 in human A549 cells by LC-MS/MS analysis; type: cell-based
Sequence of Tropomyosin alpha-1 chain (Homo sapiens) (P09493 whole entry, canonical isoform): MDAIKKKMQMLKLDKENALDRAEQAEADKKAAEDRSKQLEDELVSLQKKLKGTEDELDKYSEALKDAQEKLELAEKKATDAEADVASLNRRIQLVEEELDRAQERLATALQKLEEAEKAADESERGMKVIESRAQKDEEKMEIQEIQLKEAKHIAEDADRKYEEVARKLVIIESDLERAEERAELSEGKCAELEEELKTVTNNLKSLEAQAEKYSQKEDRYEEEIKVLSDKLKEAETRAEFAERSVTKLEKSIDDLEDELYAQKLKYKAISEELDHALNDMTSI

CC(C)[C@@H](C)/C=C/[C@@H](C)[C@H]1CC[C@H]2C3=CC=C4C[C@@H](O)CC[C@]4(C)[C@H]3CC[C@]12C [ERGOSTEROL]
inhibition of growth at 12.5 µg/mL (A549): 100% | inhibition of growth at 12.5 µg/mL (HepG2): 100% | Activity [1]: 0.93 g | Activity [2]: 1.21 g | Activity [3]: 1.42 g | inhibition in vivo at 240 mg/kg [4]: 44.6% | inhibition in vivo at 80 mg/kg [5]: 28.4% | inhibition in vivo at 27 mg/kg [6]: 15.8% | Activity [7]: 0.12 g | Activity [8]: 0.12 g | Activity [9]: -0.61 g | Activity [10]: -0.36 g | survival at 240 h [11]: 100% | survival at 240 h [12]: 100% | Activity [13]: 0.19 g | Activity [14]: 0.32 g | Activity [15]: 0.42 g | inhibition in vivo at 240 mg/kg [16]: 64.4% | inhibition in vivo at 80 mg/kg [17]: 41.1% | Activity [18]: 1.87 g | Activity [19]: 1.67 g | Activity [20]: 5.7 g | Activity [21]: 7.78 g | Activity [22]: 6.92 g | survival at 240 h [23]: 100% | survival at 240 h [24]: 100% | Activity [25]: Active | Activity [26]: Active | Activity [27]: Active | Activity [28]: Active | Activity [29]: Active | Activity [30]: Active | Activity [31]: Active
